Assay results from article PMC8799717, “Pharmacological targeting PIKfyve and tubulin as an effective treatment strategy for double-hit lymphoma” (Cell Death Discovery, 2022).

How the values were obtained:
Assay in all cases: biochemical
Parameters in all cases: KINOMEscan active-site-directed competition binding panel, 468 kinases, percent of DMSO control at 1 uM
Details in all cases: KINOMEscan binding, percent of DMSO control; read-out: Ctrl%
AKT1 = AKT1 (Homo sapiens, UniProt P31749)
AKT2 = AKT2 (Homo sapiens, UniProt P31751)
CDC2L2 = biological target: T1, CDC2L2 (Homo sapiens, UniProt Q9UQ88)
T1 construct: gene CDK11A

CSNK2A2 = CSNK2A2 (Homo sapiens, UniProt P19784)
CTK = biological target: T2, CTK (Homo sapiens, UniProt P42679)
T2 construct: gene MATK

DCAMKL2 = biological target: T3, DCAMKL2 (Homo sapiens, UniProt Q8N568)
T3 construct: gene DCLK2

EGFR(G719S) = EGFR(G719S) (Homo sapiens, UniProt P00533, G719S)
EPHB1 = EPHB1 (Homo sapiens, UniProt P54762)
FLT3 = FLT3 (Homo sapiens, UniProt P36888)
FLT3(ITD,D835V) = FLT3(ITD,D835V) (Homo sapiens, UniProt P36888, D835V/ITD)
KIT(A829P) = KIT(A829P) (Homo sapiens, UniProt P10721, A829P)
LYN = LYN (Homo sapiens, UniProt P07948)
MAK = MAK (Homo sapiens, UniProt P20794)
MST1R = MST1R (Homo sapiens, UniProt Q04912)
PCTK1 = biological target: T4, PCTK1 (Homo sapiens, UniProt Q00536)
T4 construct: gene CDK16

PIK3CA = PIK3CA (Homo sapiens, UniProt P42336)
PIP5K1C = PIP5K1C (Homo sapiens, UniProt O60331)
PKAC-beta = biological target: T5, PKAC-beta (Homo sapiens, UniProt P22694)
T5 construct: gene PRKACB

RIOK3 = RIOK3 (Homo sapiens, UniProt O14730)
[1] = biological target: T6, RSK1(Kin.Dom.1-N-terminal) (Homo sapiens, UniProt Q15418)
T6 construct: gene RPS6KA1; Kin.Dom.1-N-terminal

[2] = biological target: T7, RSK4(Kin.Dom.1-N-terminal) (Homo sapiens, UniProt Q9UK32)
T7 construct: gene RPS6KA6; Kin.Dom.1-N-terminal

STK16 = STK16 (Homo sapiens, UniProt O75716)
TLK1 = TLK1 (Homo sapiens, UniProt Q9UKI8)

Sequence of PIK3CA (P42336 whole entry): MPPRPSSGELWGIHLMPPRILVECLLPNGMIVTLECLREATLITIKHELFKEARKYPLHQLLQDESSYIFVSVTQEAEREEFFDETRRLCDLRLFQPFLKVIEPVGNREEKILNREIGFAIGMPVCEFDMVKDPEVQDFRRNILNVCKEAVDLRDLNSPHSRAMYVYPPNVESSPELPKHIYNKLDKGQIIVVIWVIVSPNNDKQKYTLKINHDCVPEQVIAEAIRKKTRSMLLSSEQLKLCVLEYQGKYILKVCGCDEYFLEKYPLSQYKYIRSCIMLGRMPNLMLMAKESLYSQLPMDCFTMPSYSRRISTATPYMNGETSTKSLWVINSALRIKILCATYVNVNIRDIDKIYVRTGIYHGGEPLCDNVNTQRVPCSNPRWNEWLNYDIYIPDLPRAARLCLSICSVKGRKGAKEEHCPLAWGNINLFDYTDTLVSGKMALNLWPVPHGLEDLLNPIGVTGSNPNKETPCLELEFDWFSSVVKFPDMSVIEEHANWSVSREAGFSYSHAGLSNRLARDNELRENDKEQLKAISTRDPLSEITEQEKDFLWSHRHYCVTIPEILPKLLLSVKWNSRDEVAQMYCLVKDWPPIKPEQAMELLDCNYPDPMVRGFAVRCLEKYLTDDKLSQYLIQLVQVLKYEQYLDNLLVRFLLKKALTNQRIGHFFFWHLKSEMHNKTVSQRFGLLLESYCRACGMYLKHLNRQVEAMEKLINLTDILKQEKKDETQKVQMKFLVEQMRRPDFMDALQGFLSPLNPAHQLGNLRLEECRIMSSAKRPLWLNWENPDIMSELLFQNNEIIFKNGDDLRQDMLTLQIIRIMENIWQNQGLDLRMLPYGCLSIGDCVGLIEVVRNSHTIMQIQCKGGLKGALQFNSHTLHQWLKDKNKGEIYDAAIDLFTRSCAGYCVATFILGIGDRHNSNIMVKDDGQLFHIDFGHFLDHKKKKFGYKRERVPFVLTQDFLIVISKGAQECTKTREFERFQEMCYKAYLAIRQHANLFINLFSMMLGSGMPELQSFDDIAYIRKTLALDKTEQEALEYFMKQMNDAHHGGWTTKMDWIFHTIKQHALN
T3 sequence (Q8N568 whole entry): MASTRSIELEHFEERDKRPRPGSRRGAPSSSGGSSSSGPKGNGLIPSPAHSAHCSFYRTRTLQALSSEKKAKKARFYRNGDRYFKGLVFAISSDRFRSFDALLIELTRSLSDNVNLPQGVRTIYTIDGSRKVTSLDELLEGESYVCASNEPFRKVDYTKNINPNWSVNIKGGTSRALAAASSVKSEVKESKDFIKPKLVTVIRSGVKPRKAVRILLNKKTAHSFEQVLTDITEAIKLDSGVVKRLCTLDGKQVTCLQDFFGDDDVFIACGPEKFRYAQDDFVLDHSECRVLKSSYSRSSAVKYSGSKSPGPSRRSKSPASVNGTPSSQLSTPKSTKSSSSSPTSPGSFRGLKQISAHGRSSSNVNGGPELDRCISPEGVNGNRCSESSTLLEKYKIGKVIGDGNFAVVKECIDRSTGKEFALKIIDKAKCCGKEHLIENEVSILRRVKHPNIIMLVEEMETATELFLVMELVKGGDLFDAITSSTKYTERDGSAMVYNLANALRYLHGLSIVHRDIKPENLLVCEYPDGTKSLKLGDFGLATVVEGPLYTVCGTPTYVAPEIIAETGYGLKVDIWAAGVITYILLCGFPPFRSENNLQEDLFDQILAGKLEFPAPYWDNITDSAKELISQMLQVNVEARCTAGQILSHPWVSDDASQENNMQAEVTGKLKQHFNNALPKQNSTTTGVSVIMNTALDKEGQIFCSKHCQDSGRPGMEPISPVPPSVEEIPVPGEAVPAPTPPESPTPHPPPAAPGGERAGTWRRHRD
Sequence of EGFR(G719S) (P00533 whole entry G719S): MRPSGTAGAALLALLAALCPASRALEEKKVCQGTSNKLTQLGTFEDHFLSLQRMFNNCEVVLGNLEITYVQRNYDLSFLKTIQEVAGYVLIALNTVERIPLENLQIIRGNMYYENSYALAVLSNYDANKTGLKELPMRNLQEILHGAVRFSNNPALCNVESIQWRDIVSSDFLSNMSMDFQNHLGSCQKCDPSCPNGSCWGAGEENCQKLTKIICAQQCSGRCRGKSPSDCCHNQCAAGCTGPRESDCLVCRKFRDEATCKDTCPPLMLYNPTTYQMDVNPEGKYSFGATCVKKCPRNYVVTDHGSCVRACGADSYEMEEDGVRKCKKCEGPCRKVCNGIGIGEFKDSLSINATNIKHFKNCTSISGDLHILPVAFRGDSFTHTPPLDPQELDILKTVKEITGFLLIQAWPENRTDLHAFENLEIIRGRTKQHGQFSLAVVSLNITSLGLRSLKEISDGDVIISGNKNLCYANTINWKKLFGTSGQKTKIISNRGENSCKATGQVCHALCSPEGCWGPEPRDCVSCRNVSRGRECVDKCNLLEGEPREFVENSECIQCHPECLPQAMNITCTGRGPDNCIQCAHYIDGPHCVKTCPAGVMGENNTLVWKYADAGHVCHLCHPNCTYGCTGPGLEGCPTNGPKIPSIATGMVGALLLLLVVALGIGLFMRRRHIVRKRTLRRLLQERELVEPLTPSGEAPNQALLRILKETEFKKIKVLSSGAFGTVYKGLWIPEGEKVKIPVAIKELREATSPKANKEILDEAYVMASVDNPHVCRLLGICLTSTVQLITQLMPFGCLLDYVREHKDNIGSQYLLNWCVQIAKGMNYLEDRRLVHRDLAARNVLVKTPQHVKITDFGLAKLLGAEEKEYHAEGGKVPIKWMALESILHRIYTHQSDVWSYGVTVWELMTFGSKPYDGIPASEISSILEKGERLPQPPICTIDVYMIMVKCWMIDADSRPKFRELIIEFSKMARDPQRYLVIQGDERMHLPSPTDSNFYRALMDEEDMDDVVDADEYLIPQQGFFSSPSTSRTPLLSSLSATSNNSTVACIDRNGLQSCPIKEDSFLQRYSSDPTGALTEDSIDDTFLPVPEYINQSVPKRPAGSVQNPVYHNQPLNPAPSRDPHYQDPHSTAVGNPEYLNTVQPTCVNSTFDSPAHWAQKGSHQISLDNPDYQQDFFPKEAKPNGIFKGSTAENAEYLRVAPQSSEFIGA
T1 sequence (Q9UQ88 whole entry): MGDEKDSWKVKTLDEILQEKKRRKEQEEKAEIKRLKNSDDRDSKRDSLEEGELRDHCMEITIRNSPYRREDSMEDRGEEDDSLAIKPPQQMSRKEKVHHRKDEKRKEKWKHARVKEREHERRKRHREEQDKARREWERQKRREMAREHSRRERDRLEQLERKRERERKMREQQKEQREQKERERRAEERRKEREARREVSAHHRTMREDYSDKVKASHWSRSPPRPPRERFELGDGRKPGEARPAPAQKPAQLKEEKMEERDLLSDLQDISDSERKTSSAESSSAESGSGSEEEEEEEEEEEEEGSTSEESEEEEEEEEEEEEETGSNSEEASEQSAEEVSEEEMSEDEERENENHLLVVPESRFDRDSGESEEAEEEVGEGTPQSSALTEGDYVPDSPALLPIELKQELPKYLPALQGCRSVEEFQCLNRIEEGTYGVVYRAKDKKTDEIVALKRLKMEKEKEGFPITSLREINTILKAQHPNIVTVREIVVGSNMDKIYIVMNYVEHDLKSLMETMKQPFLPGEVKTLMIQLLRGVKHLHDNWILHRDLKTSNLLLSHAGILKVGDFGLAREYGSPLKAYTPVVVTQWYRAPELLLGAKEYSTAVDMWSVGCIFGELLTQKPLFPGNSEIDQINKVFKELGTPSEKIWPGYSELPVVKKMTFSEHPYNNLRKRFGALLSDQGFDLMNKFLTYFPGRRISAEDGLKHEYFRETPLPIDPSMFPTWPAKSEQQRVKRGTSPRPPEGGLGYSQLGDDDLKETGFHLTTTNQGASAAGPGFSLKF
Sequence of AKT2 (P31751 whole entry): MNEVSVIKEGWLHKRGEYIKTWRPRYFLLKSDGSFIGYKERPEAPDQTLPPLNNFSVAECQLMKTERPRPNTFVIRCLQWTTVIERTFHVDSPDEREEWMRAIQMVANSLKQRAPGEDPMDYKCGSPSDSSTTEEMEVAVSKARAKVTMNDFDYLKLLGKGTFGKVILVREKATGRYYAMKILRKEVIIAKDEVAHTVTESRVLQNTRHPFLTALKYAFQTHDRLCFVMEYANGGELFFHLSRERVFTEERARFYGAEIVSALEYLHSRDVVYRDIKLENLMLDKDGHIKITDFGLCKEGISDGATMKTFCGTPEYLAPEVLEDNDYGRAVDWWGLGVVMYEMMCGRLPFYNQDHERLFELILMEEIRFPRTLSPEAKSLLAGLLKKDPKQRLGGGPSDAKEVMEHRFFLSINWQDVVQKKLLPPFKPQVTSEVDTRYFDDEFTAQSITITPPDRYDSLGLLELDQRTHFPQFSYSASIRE
T7 sequence (Q9UK32 whole entry): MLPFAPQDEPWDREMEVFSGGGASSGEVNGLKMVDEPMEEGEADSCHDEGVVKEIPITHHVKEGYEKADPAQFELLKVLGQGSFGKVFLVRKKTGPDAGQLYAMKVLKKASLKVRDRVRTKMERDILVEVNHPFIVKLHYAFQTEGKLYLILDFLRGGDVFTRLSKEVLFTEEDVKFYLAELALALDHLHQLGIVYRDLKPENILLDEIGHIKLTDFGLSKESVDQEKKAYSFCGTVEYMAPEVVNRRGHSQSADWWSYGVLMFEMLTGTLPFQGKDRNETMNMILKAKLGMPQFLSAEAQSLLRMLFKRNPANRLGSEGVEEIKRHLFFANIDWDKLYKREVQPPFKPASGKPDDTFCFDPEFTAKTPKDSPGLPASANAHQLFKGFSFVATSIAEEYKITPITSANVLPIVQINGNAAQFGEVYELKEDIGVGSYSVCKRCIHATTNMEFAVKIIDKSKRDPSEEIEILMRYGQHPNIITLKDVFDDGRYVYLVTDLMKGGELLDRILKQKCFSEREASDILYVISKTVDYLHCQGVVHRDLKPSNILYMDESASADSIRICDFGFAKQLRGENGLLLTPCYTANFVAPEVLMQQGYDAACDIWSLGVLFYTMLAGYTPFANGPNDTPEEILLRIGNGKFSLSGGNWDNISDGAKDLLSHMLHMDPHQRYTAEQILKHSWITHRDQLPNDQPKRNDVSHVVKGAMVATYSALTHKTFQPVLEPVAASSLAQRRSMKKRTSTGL

## Cc1ccc(NC(=O)c2cccc(C(F)(F)F)c2)cc1Nc1cc(-c2cccnc2)nc2[nH]ccc12 [HZX-02-059]
AKT1
  remaining binding at 1 µM: 99%
AKT2
  remaining binding at 1 µM: 85%
CDC2L2
  remaining binding at 1 µM: 80%
CSNK2A2
  remaining binding at 1 µM: 100%
CTK
  remaining binding at 1 µM: 56%
DCAMKL2
  remaining binding at 1 µM: 96%
EGFR(G719S)
  remaining binding at 1 µM: 97%
EPHB1
  remaining binding at 1 µM: 39%
FLT3
  remaining binding at 1 µM: 91%
FLT3(ITD,D835V)
  remaining binding at 1 µM: 100%
KIT(A829P)
  remaining binding at 1 µM: 84%
LYN
  remaining binding at 1 µM: 17%
MAK
  remaining binding at 1 µM: 95%
MST1R
  remaining binding at 1 µM: 89%
PCTK1
  remaining binding at 1 µM: 100%
PIK3CA
  remaining binding at 1 µM: 100%
PIP5K1C
  remaining binding at 1 µM: 73%
PKAC-beta
  remaining binding at 1 µM: 95%
RIOK3
  remaining binding at 1 µM: 100%
[1]
  remaining binding at 1 µM: 72%
[2]
  remaining binding at 1 µM: 79%
STK16
  remaining binding at 1 µM: 96%
TLK1
  remaining binding at 1 µM: 95%
